Assay results reported in patent US9221792B2, “N-(4-(azetidine-1-carbonyl) phenyl)-(hetero-) arylsulfonamide derivatives as pyruvate kinase M2 (PMK2) modulators” (AGIOS PHARMACEUTICALS, INC, priority 2010, dated 2015).

biological target: PKM2 (Homo sapiens, UniProt P14618); test: PKM2 Assay (activation, LDH-coupled NADH absorbance at 340 nm); assay type: biochemical; details: not given
Experimental: • PKM2 stock enzyme solution was diluted in Reaction Buffer • 2 μL of compound was added into each well first, and then 180 μL of the Reaction Mix was added. • Reaction mixture with compound (without ADP) were incubated for 30 minutes at 4° C. • Plates were re-equilibrated to room temperature prior to adding 20 μL ADP to initiate the reaction. • Reaction progress was measured as changes in absorbance at 340 nm wavelength at room temperature (25° C.) Reaction Mix: PKM2 (50 ng/well), ADP (0.7 mM), PEP (0.15 mM), NADH (180 μM), LDH (2 units) in Reaction Buffer Reaction Buffer: 100 mM KCl, 50 mM Tris pH 7.5, 5 mM MgCl2, 1 mM DTT, 0.03% BSA.
Certain compounds of Formula I were tested in the above-described assay. A compound described herein may be tested for its ability to activate PKM2. The activation activity of these compounds is represented as an AC50 in Table 2 and throughout the application. […] “B” refers to an activator of PKM2 with an EC50 between 100 nM and 1 μM. “C” refers to an activator of PKM2 with an EC50 between 1 μM and 10 μM. “D” refers to an activator of PKM2 with an EC50 greater than 10 μM. “NA” refers to data that is not available.

Chain of PKM2 (P14618 whole entry): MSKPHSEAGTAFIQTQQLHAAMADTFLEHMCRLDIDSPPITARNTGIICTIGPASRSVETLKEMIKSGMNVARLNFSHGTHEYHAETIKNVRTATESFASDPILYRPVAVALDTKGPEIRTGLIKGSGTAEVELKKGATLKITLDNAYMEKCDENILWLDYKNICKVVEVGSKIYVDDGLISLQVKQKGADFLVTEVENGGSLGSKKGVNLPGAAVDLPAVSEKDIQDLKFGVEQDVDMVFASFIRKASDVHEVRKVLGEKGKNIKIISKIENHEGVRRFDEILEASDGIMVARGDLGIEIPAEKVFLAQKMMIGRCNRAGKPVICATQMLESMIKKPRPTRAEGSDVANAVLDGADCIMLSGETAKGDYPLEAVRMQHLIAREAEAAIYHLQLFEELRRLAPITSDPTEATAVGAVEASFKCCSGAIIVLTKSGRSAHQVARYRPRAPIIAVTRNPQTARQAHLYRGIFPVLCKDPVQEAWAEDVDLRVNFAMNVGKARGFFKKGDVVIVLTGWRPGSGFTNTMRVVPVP

SMILES | AC50 [nM]
O=C(Cc1ccccc1)OC1CN(C(=O)c2ccc(NS(=O)(=O)c3cccc4cccnc34)cc2)C1 [Compound 123, 1-(4-(Quinoline-8-sulfonamido)benzoyl)azetidin-3-yl 2-phenylacetate] | 100 to 1000

same assay, conditions: activation of PKM2; PKM2 50 ng/well, ADP 0.7 mM, PEP 0.15 mM, room temperature (25° C.); read-out: AC50

SMILES | AC50 [nM]
O=C(c1ccc(NS(=O)(=O)c2cccc3cccnc23)cc1)N1CC(Oc2ccccc2)C1 [Compound 100] | 100 to 1000
O=C(c1ccc(NS(=O)(=O)c2cccc3cccnc23)cc1)N1CC(O)(Cc2ccccc2)C1 [Compound 101, N-(4-(3-benzyl-3-hydroxyazetidine-1-carbonyl)phenyl)quinoline-8-sulfonamide] | < 100
O=C(OC1CN(C(=O)c2ccc(NS(=O)(=O)c3cccc4cccnc34)cc2)C1)c1ccccn1 [Compound 102, 1-(4-(Quinoline-8-sulfonamido)benzoyl)azetidin-3-yl picolinate] | 1000 to 10000
Cc1cc(C(=O)N2CC(NC(=O)c3ccccn3)C2)ccc1NS(=O)(=O)c1cccc2cccnc12 [Compound 103, N-(1-(3-Methyl-4-(quinoline-8-sulfonamido)benzoyl)azetidin-3-yl)picolinamide] | 100 to 1000
O=C(NC1CN(C(=O)c2ccc(S(=O)(=O)Nc3cccc4cccnc34)cc2)C1)c1ccccn1 [Compound 104] | > 10000
COC1(Cc2ccccc2)CN(C(=O)c2ccc(NS(=O)(=O)c3cccc4cccnc34)cc2)C1 [Compound 105, N-(4-(3-benzyl-3-methoxyazetidine-1-carbonyl)phenyl)quinoline-8-sulfonamide] | 100 to 1000
Cc1cc(C(=O)N2CC(Oc3ccccc3)C2)ccc1NS(=O)(=O)c1cccc2cccnc12 [Compound 106] | < 100
O=C(c1ccc(NS(=O)(=O)c2cccc3cccnc23)c(F)c1)N1CC(Oc2ccccc2)C1 [Compound 107] | 100 to 1000
O=C(c1ccc(NS(=O)(=O)c2cccc3cccnc23)cc1)N1CC(OCc2ccccc2)C1 [Compound 108, N-(4-(3-(benzyloxy)azetidine-1-carbonyl)phenyl)quinoline-8-sulfonamide] | 100 to 1000
Cc1cc(C(=O)N2CC(N(C)Cc3ccccc3)C2)ccc1NS(=O)(=O)c1cccc2cccnc12 [Compound 109, N-(4-(3-(benzyl(methyl)amino)azetidine-1-carbonyl)-2-methylphenyl)quinoline-8-sulfonamide] | 100 to 1000
Cc1cc(C(=O)N2CC(OC(=O)c3ccccn3)C2)ccc1NS(=O)(=O)c1cccc2cccnc12 [Compound 110, 1-(3-Methyl-4-(quinoline-8-sulfonamido)benzoyl)azetidin-3-yl picolinate] | 100 to 1000
O=C(NC1CN(C(=O)c2ccc(NS(=O)(=O)c3cccc4cccnc34)cc2)C1)c1ccccn1 [Compound 111, N-(1-(4-(Quinoline-8-sulfonamido)benzoyl)azetidin-3-yl)picolinamide] | 1000 to 10000
O=C(c1ccc(NS(=O)(=O)c2cccc3cccnc23)cc1)N1CC(Nc2ccccc2)C1 [Compound 112] | < 100
COc1ccccc1NC1CN(C(=O)c2ccc(NS(=O)(=O)c3cccc4cccnc34)cc2)C1 [Compound 113] | < 100
COc1ccccc1NC1CN(C(=O)c2ccc(NS(=O)(=O)c3cccc4cccnc34)c(C)c2)C1 [Compound 114] | < 100
COc1ccccc1NC1CN(C(=O)c2ccc(NS(=O)(=O)c3cccc4cccnc34)c(F)c2)C1 [Compound 115] | 100 to 1000
COc1ccccc1NC1CN(C(=O)c2ccc(S(=O)(=O)Nc3cccc4cccnc34)cc2)C1 [Compound 116] | > 10000
COc1ccccc1N(C)C1CN(C(=O)c2ccc(NS(=O)(=O)c3cccc4cccnc34)cc2)C1 [Compound 117] | 100 to 1000
O=C(c1ccc(NS(=O)(=O)c2cccc3cccnc23)c(F)c1)N1CC(Nc2ccccc2)C1 [Compound 118] | 100 to 1000

SMILES | AC50 [nM]
O=C(c1ccc(S(=O)(=O)Nc2cccc3cccnc23)cc1)N1CC(OCc2ccccc2)C1 [Compound 119] | 1000 to 10000
Cc1cc(C(=O)N2CC(OCc3ccccc3)C2)ccc1NS(=O)(=O)c1cccc2cccnc12 [Compound 120, N-(4-(3-(benzyloxy)azetidine-1-carbonyl)-2-methylphenyl)quinoline-8-sulfonamide] | 100 to 1000
O=C(NC1CN(C(=O)c2ccc(NS(=O)(=O)c3cccc4cccnc34)c(F)c2)C1)c1ccccn1 [Compound 121, N-(1-(3-Fluoro-4-(quinoline-8-sulfonamido)benzoyl)azetidin-3-yl)picolinamide] | 1000 to 10000
CN(c1ccccc1)C1CN(C(=O)c2ccc(NS(=O)(=O)c3cccc4cccnc34)cc2)C1 [Compound 122] | < 100
O=C(OC1CN(C(=O)c2ccc(NS(=O)(=O)c3cccc4cccnc34)c(F)c2)C1)c1ccccn1 [Compound 124, 1-(3-Fluoro-4-(quinoline-8-sulfonamido)benzoyl)azetidin-3-yl picolinate] | 1000 to 10000
CC1(O)CN(C(=O)c2ccc(NS(=O)(=O)c3cccc4cccnc34)c(F)c2)C1 [Compound 125] | > 10000
CC1(O)CN(C(=O)c2ccc(NS(=O)(=O)c3cccc4cccnc34)cc2)C1 [Compound 126] | > 10000
COc1cc(NS(=O)(=O)c2cccc3cccnc23)ccc1C(=O)N1CC(C)(O)C1 [Compound 127] | 1000 to 10000
COc1ccccc1N(C)C1CN(C(=O)c2ccc(S(=O)(=O)Nc3cccc4cccnc34)cc2)C1 [Compound 128] | > 10000
COc1ccccc1OC1CN(C(=O)c2ccc(NS(=O)(=O)c3cccc4cccnc34)cc2)C1 [Compound 129] | 100 to 1000
COc1cc(NS(=O)(=O)c2cccc3cccnc23)ccc1C(=O)N1CC(O)(Cc2ccccc2)C1 [Compound 130, N-(4-(3-benzyl-3-hydroxyazetidine-1-carbonyl)-3-methoxyphenyl)quinoline-8-sulfonamide] | < 100
Cc1cc(C(=O)N2CC(O)(Cc3ccccc3)C2)ccc1NS(=O)(=O)c1cccc2cccnc12 [Compound 131, N-(4-(3-benzyl-3-hydroxyazetidine-1-carbonyl)-2-methylphenyl) quinoline-8-sulfonamide] | < 100
Cc1cc(C(=O)N2CC(OC(=O)NC(C)C)C2)ccc1NS(=O)(=O)c1cccc2cccnc12 [Compound 132, 1-(3-Methyl-4-(quinoline-8-sulfonamido)benzoyl)azetidin-3-yl isopropylcarbamate] | 100 to 1000
COc1cc(NS(=O)(=O)c2cccc3cccnc23)ccc1C(=O)N1CC(OC(=O)NC(C)C)C1 [Compound 133, 1-(2-Methoxy-4-(quinoline-8-sulfonamido)benzoyl)azetidin-3-yl isopropylcarbamate] | 100 to 1000
CC(C)NC(=O)OC1CN(C(=O)c2ccc(NS(=O)(=O)c3cccc4cccnc34)c(F)c2)C1 [Compound 134, 1-(3-Fluoro-4-(quinoline-8-sulfonamido)benzoyl)azetidin-3-yl isopropylcarbamate] | 1000 to 10000
CC(C)NC(=O)OC1CN(C(=O)c2ccc(NS(=O)(=O)c3cccc4cccnc34)cc2)C1 [Compound 135, 1-(4-(Quinoline-8-sulfonamido)benzoyl)azetidin-3-yl isopropylcarbamate] | 1000 to 10000
O=C(c1ccc(NS(=O)(=O)c2cccc3cccnc23)cc1)N1CC(O)(c2ccccc2)C1 [Compound 136] | 100 to 1000
Cc1cc(C(=O)N2CC(O)(c3ccccc3)C2)ccc1NS(=O)(=O)c1cccc2cccnc12 [Compound 137] | 100 to 1000
COc1cc(NS(=O)(=O)c2cccc3cccnc23)ccc1C(=O)N1CC(O)(c2ccccc2)C1 [Compound 138] | < 100
